From patent US20240279202A1 (NURIX THERAPEUTICS, INC., priority 2021, published 2024)

Molecular target: T1, ITK (Homo sapiens, UniProt Q08881)
T1 sequence (Q08881 1-620): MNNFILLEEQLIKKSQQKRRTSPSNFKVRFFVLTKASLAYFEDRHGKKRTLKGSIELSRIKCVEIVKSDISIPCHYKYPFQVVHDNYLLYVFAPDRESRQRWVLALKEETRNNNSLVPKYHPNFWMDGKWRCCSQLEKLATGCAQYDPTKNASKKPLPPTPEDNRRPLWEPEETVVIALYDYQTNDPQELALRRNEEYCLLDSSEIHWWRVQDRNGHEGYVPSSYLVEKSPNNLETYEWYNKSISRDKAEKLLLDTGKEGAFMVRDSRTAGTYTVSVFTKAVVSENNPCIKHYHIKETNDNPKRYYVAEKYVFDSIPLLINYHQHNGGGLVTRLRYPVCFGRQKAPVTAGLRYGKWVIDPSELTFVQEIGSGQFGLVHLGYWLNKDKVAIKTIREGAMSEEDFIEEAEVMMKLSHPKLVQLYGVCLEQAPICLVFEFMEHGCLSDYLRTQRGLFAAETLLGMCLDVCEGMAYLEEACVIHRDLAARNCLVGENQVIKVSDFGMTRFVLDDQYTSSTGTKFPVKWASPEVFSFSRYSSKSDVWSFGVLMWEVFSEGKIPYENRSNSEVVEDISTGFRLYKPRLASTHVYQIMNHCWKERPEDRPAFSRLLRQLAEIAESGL
Assay: ITK degradation HiBiT assay
Format: cell-based
Set-up: expressed in transfected cells; host or cells: Molt4 (ATCC CRL-1552), monoclonal clone 1C10, engineered to carry the HiBiT tag
Details: 4 hrs; for DC50: C-terminal HiBiT-tagged Molt4 cells; for Dmax: MOLT-4, C-terminal HiBiT-tagged Molt4 cells
Protocol: Itk Degradation Hibit Assay
Compounds provided herein were assayed in vitro with ITK HiBit cell lines. Compound dilution series (11-point, 5 fold dilutions in DMSO, columns 2-12 with replicate in rows A/B, C/D, E/F, G,H at 2000× the final required concentrations were prepared in 96 well plates (Falcon, cat. no. 353077). Column 1, rows A-H were control DMSO. The 2000× solutions ranged from 2 mM to 1.024 nM (final assay concentration range 1 μM to […]). The 2000× solutions were added to cells in […], for a final DMSO concentration of 0.5% and final assay compound concentration of 1×. For the cells, C-terminal HiBiT-tagged Molt4 cells (ATCC CRL-1552, monoclonal cell line clone 1C10) were plated at 1×10^6 cells/mL, 100 μL/well ([…]) in complete RPMI (10% FBS, 1% L-glutamine). The cells were incubated with compound 10 and compound 17 for 4 hrs at […]/6% CO2.
Following incubation, 100 μL of complete Nano-Glo HiBiT Lytic Detection Reagent (Nano-Glo HiBiT Lytic Buffer with 1:50 Nano-Glo HiBiT Lytic Substrate and 1:100 LgBiT Protein; Promega cat. no. N3040) was added. Cells were further incubated for 10 min at room temperature (RT). Luminescence units (LU) were read on an EnVision plate reader (Perkin Elmer, 0.1 sec per well). Percent ITK remaining per sample was calculated as follows: […]
Using Graphpad Prism, % ITK remaining values were plotted as a function of compound concentration. To determine DC50 and Dmax values, resulting curves were fit to the Prism curve-fitting equation “log(inhibitor) vs response—Variable slope (four parameters)” (reported best fit value IC50 used as DC50). ITK was measured with antibody-based MSD (Meso-Scale Discovery) assays shown below.

DC50	Dmax	SMILES
0.345 nM	78%	C[C@@]12Cc3[nH]nc(C(=O)Nc4cnn(C5CCN(CC6CCN(c7ccc(N8CCC(=O)NC8=O)cc7)C6)CC5)c4)c3C[C@@H]1C2(F)F (stereo partly drawn) [Compound 209, (4aS,5aR)-N-(1-(1-((1-(4-(2,4-dioxotetrahydropyrimidin-1(2H)-yl)phenyl)pyrrolidin-3-yl)methyl)piperidin-4-yl)-1H-pyrazol-4-yl)-5,5-difluoro-5a-methyl-1,4,4a,5,5a,6-hexahydrocyclopropa[f]indazole-3-carboxamide]
	70%	Cc1cc(N2CCC(CN3CCN(C(=O)c4ccc5cc(-c6n[nH]c7c6CCC(C)(C)C7)[nH]c5c4)CC3)CC2)ccc1C1CCC(=O)NC1=O (stereo not drawn) [Compound 182]
	85%	C[C@@H]1CN(C(=O)c2ccc3cc(-c4n[nH]c5c4C[C@@H]4C(F)(F)[C@]4(C)C5)[nH]c3c2)CCN1CC1CCN(c2ccc(C3CCC(=O)NC3=O)cc2F)CC1 (stereo partly drawn) [Compound 161]
	52%	CC1(C)CCc2c(-c3cc4ccc(C(=O)N5CCC(CN6CCCc7cc(C8CCC(=O)NC8=O)ccc76)CC5)cc4[nH]3)n[nH]c2C1 (stereo not drawn) [Compound 199]
8.5 nM	84%	COC[C@@]1(C)CCc2c(-c3cc4ccc(C(=O)N5CCN(CC6CCN(c7ccc(C8CCC(=O)NC8=O)cc7)CC6)CC5)cc4[nH]3)n[nH]c2C1 (mixture of isomers) [Compound 224, (3RS)-3-(4-{4-[(4-{2-[(6S)-6-(methoxymethyl)-6-methyl-1,4,5,7-tetrahydroindazol-3-yl]-1H-indole-6-carbonyl}piperazin-1-yl)methyl]piperidin-1-yl}phenyl)piperidine-2,6-dione]
	86%	C[C@@]12Cc3[nH]nc(C(=O)Nc4cnn(C5CCN(C(=O)C6CCN(c7ccc(C8CCC(=O)NC8=O)cn7)C6)CC5)c4)c3C[C@@H]1C2(F)F (mixture of isomers) [Compound 167]
	70%	COc1cc(N2CCC(CN3CCN(C(=O)c4ccc5cc(-c6n[nH]c7c6CCC(C)(C)C7)[nH]c5c4)CC3)CC2)ccc1C1CCC(=O)NC1=O (stereo not drawn) [Compound 184]
	81%	C[C@@]12Cc3[nH]nc(-c4cc5cc(C(=O)N6CCN(C[C@H]7CCN(c8ccc(C9CCC(=O)NC9=O)cc8)C7)CC6)ccc5[nH]4)c3C[C@@H]1C2(F)F (stereo partly drawn) [Compound 147]
	76%	CC1(C)CCc2c(C(=O)Nc3cnn([C@H]4CC[C@H](C(=O)N5CCN(c6ccc(C7CCC(=O)NC7=O)cc6)CC5)CC4)c3)n[nH]c2C1 (mixture of isomers) [Compound 176]

Continued, compound first:

SMILES	DC50	Dmax
C[C@@]12Cc3[nH]nc(-c4cc5cc(F)c(C(=O)N6CCN(CC7CCN(c8ccc(C9CCC(=O)NC9=O)cc8)CC7)CC6)cc5[nH]4)c3C[C@@H]1C2(F)F (stereo partly drawn) [Compound 138, 3-(4-(4-((4-(2-((4aS,5aR)-5,5-difluoro-5a-methyl-1,4,4a,5,5a,6-hexahydrocyclopropa[f]indazol-3-yl)-5-fluoro-1H-indole-6-carbonyl)piperazin-1-yl)methyl)piperidin-1-yl)phenyl)piperidine-2,6-dione]	0.076 nM	83%
C[C@@H]1CN(C(=O)c2ccc3cc(-c4n[nH]c5c4CCC(C)(C)C5)[nH]c3c2)CCN1CC1CCN(c2ccc(C3CCC(=O)NC3=O)cn2)CC1 (stereo partly drawn) [Compound 129, 3-(6-(4-(((R)-4-(2-(6,6-dimethyl-4,5,6,7-tetrahydro-1H-indazol-3-yl)-1H-indole-6-carbonyl)-2-methylpiperazin-1-yl)methyl)piperidin-1-yl)pyridin-3-yl)piperidine-2,6-dione]	4.9 nM	81%
C[C@@]12Cc3[nH]nc(C(=O)Nc4cnn(C5CCC(CN6CCc7cc(C8CCC(=O)NC8=O)ccc7C6)CC5)c4)c3C[C@@H]1C2(F)F (mixture of isomers) [Compound 123, (4aS,5aR)-5,5-difluoro-5a-methyl-N-{1-[(lsr,4sr)-4-({6-[(3RS)-2,6-dioxopiperidin-3-yl]-1,2,3,4-tetrahydroisoquinolin-2-yl}methyl)cyclohexyl]-1H-pyrazol-4-yl}-1H,4H,4aH,5H,5aH,6H-cyclopropa[f]indazole-3-carboxamide]	63.1 nM	63%
C[C@@]12Cc3[nH]nc(C(=O)Nc4cnn(C5CCN(CC6CCN(c7ccc([C@H]8CCC(=O)NC8=O)cc7F)CC6)CC5)c4)c3C[C@@H]1C2(F)F [Compound 118, (4aS,5aR)-N-(1-{1-[(1-{4-[(3R)-2,6-dioxopiperidin-3-yl]-2-fluorophenyl}piperidin-4-yl)methyl]piperidin-4-yl}-1H-pyrazol-4-yl)-5,5-difluoro-5a-methyl-1H,4H,4aH,5H,5aH,6H-cyclopropa[f]indazole-3-carboxamide]	0.467 nM	77%
C[C@@]12Cc3[nH]nc(C(=O)Nc4cnn(C5CCN(CC6CCN(c7ccc(N8CCC(=O)NC8=O)cn7)CC6)CC5)c4)c3C[C@@H]1C2(F)F [Compound 113, (4aS,5aR)-N-{1-[1-({1-[5-(2,4-dioxo-1,3-diazinan-1-yl)pyridin-2-yl]piperidin-4-yl}methyl)piperidin-4-yl]-1H-pyrazol-4-yl}-5,5-difluoro-5a-methyl-1H,4H,4aH,5H,5aH,6H-cyclopropa[f]indazole-3-carboxamide]	0.4 nM	80%
C[C@@]12Cc3[nH]nc(C(=O)Nc4cnn([C@@H]5CCN(CC6CCN(c7ccc([C@H]8CCC(=O)NC8=O)cc7)CC6)C[C@H]5F)c4)c3C[C@@H]1C2(F)F (single isomer, unassigned) [Compound 96]	1.1 nM	89%
CN(C(=O)C1CCN(CC2CCN(c3ccc(C4CCC(=O)NC4=O)cn3)CC2)CC1)c1ccc2cc(-c3n[nH]c4c3C[C@@H]3C(F)(F)[C@]3(C)C4)[nH]c2c1 (stereo partly drawn) [Compound 74, N-(2-((4aS,5aR)-5,5-difluoro-5a-methyl-1,4,4a,5,5a,6-hexahydrocyclopropa[f]indazol-3-yl)-1H-indol-6-yl)-1-((1-(5-(2,6-dioxopiperidin-3-yl)pyridin-2-yl)piperidin-4-yl)methyl)-N-methylpiperidine-4-carboxamide]	10.5 nM	
CC1(C)CCc2c(-c3cc4ccc(C(=O)N5CCN(CC6CCN(c7ccc(C8CCC(=O)NC8=O)cn7)CC6)C(C)(C)C5)cc4[nH]3)n[nH]c2C1 (stereo not drawn) [Compound 133, 3-(6-(4-((4-(2-(6,6-dimethyl-4,5,6,7-tetrahydro-1H-indazol-3-yl)-1H-indole-6-carbonyl)-2,2-dimethylpiperazin-1-yl)methyl)piperidin-1-yl)pyridin-3-yl)piperidine-2,6-dione]	1.6 nM	86%
C[C@@H]1CN(CC2CCN(c3ccc(C4CCC(=O)NC4=O)cn3)CC2)CCN1C(=O)c1ccc2cc(-c3n[nH]c4c3CCC(C)(C)C4)[nH]c2c1 (stereo partly drawn) [Compound 132, 3-(6-(4-(((R)-4-(2-(6,6-dimethyl-4,5,6,7-tetrahydro-1H-indazol-3-yl)-1H-indole-6-carbonyl)-3-methylpiperazin-1-yl)methyl)piperidin-1-yl)pyridin-3-yl)piperidine-2,6-dione]	7 nM	82%
C[C@@]12Cc3[nH]nc(C(=O)Nc4cnn(C5CCN(CC6CCN(c7ccc(C8CCC(=O)NC8=O)cn7)CC6)CC5)c4)c3C[C@@H]1C2(F)F (mixture of isomers) [Compound 114, (4aS,5aR)-N-(1-{1-[(1-{5-[(3RS)-2,6-dioxopiperidin-3-yl]pyridin-2-yl}piperidin-4-yl)methyl]piperidin-4-yl}-1H-pyrazol-4-yl)-5,5-difluoro-5a-methyl-1H,4H,4aH,5H,5aH,6H-cyclopropa[f]indazole-3-carboxamide]	0.002 nM	87%
